Source: EP0095833A2 (priority 1982, dated 1983)
Read-outs that look alike come from different tables or passages of the source.

How the values were obtained:
Sindbis virus = conditions: BHK-21 cells; 0.1 mM chloroquine or 10 µg of cytochalasin B for thirty minutes before infection; Sindbis virus 5,000 PFU; 30 or 60 minutes at room temperature; cited from earlier work
VSV [1] = test system: VSV
VSV [2] = type: cell-based; conditions: for Titer obtained (PFU/ml): pretreated for 2 hours, one-step growth (18 hours)
VSV [3] = type: cell-based; conditions: 20 mM
Vaccinia virus = type: cell-based
Reovirus III = type: cell-based
Polio virus = type: cell-based
VSV [4] = type: cell-based; conditions: HeLa cells, Figure 2
VSV [5] = type: cell-based
VSV [6] = type: cell-based; remark: listed apart in the source
[7] = test system: vesicular stomatitis virus; conditions: cited from earlier work
[8] = 20 mM, added from 2 hours before inoculation
[9] = 20 mM NH4Cl from the second hour before infection to the eighteenth hour after, Figure 7 panel A
[10] = 20 mM NH4Cl from the second hour before inoculation to the seventh hour after, Figure 5 panel A

In the case of `CCN(CC)CCCC(C)Nc1ccnc2cc(Cl)ccc12` (centres unmarked) [chloroquine], the “internalization by endocytosis of the virus” value (Sindbis virus) is given as “either enhanced or took place normally”.
In the case of `Cc1cc2nc3ccc(N(C)C)cc3nc2cc1N.Cl` [Neutral Red], the virucidal effect (VSV [1]; procedure of Example III, at these concentrations (70 µM and 100 µM)) is reported as “no virucidal effect”, the “Titer obtained (PFU/ml)” value (VSV [2]; 70 µM Neutral Red) is reported as 9.0 x 10^7 PFU/ml and the “growth of VSV” value (VSV [2]; 100 µM (29 µg/ml)) is reported as “completely inhibits”. The “Titer obtained (PFU/ml)” value (VSV [2]; 100 µM Neutral Red) was 0 PFU/ml.
For `Cl.N` [NH4Cl, ammonium chloride], the “development of VSV” value (VSV [3]; added from 2 hours before inoculation) was “completely inhibits”, the “development of VSV, compared with Table I” value (VSV [3]; in L, BHK, and BGM cells) was “Identical results” and the “viral development of Vaccinia” value (Vaccinia virus; [8]) was “No action”. For the same molecule, the “Virions produced in infected 20mM NH4Cl* treated cells” value (Vaccinia virus; L cells, Vaccinia virus, 20 mM NH4Cl from 2 hours before inoculation, end of one step growth) was 3.5 x 10^6PFU/ml, the “development of Reovirus” value (Reovirus III) was “completely inhibits” and the “development of Reovirus III, compared with Table I” value (Reovirus III; 20 mM) was “Identical results”. The “viral development of Polio virus” value (Polio virus; [8]) was “No action”, the “Virions produced in infected 20mM NH4Cl* treated cells” value (Polio virus; BGM cells, Polio virus, 20 mM NH4Cl from 2 hours before inoculation, end of one step growth) was 4.15 x 10^8PFU/ml and the “virucidal effect against VSV” value (VSV [1]; 20 mM NH4Cl in PBS, incubated at 37°C, titrated at various times) was “no virucidal effect”. For the same molecule, the “lag period before rather normal viral RNA synthesis” value (VSV [4]; 20 mM NH4Cl from 2 hours before inoculation, withdrawal at the sixth hour after inoculation) was 6 h, the “viral RNA synthesis” value (VSV [4]; 20 mM NH4Cl from 2 hours before to 18 hours after inoculation) was “seriously reduced” and the “viral RNA synthesis” value (VSV [4]; 20 mM NH4Cl only added after inoculation, until 18 hours) was “strongly reduced”. For the same molecule, the “viral cores and virions in supernatant” value (VSV [5]; treated from the second hour before inoculation to the eighteenth hour after, Figure 3 panel B) was “neither viral cores nor virions”, the virions in supernatant (VSV [5]; treated from the second hour before to the sixth hour after inoculation, 18 hours, versus untreated, Figure 3 panel A) was “lower amount” and the “viral cores in supernatant” value (VSV [5]; treated immediately after inoculation, 18 hours, versus untreated, Figure 3 panel B) was “lower level”. For the same molecule, the “infection (viral m RNAs and 42S mature RNA in cytoplasmic extracts)” value (VSV [6]; 20 mM NH4Cl from immediately after inoculation to the eighteenth hour after, Figure 7 panel B) was “slight reduction”, the “42S viral RNA in cytoplasmic extracts” value (VSV [6]; [9]) was “do not contain” and the “viral m RNAs in cytoplasmic extracts” value (VSV [6]; [9]) was “do not contain”. For the same molecule, the “amount of 42S mature viral RNA in cytoplasmic extracts” value (VSV [6]; 20 mM NH4Cl from the second hour before infection to the sixth hour after, 18 hours after infection, Figure 6 panel B) was “lower than in untreated cells”, the “viral m RNAs (31S, 17S, 14.5S, 12S) in cytoplasmic extracts” value (VSV [6]; 20 mM NH4Cl from the second hour before infection to the sixth hour after, 18 hours after infection, versus untreated, Figure 6 panel B) was “more” and the “complete virus (625S) in cytoplasmic extract” value (VSV [6]; [10]) was “large amount”. The “viral cores (120s) in cytoplasmic extract” value (VSV [6]; [10]) was “negligible amount”.
For `C=C1[C@@H](C)[C@H]2[C@H](Cc3ccccc3)NC(=O)[C@]23OC(=O)/C=C/[C@H](O)CCC[C@@H](C)C/C=C/[C@H]3[C@@H]1O` [cytochalasin B], the “internalization by endocytosis of the virus” value (Sindbis virus) is listed as “blocked” and the “yields of VSV” value [7] is listed as “the same as untreated (control) cells”.
